Reference: patent US20240407990A1, “SYNERGISTIC ANTIOXIDANT COMPOSITIONS” (The Procter & Gamble Company, priority 2023, published 2024)

Assays:
skin = conditions: cited from earlier work
keratinocytes = experiment: Peroxide-Induced Keratinocyte Stress (ATP levels post-peroxide exposure); format: cell-based; set-up: key: net luminescence counts (treatment minus vehicle control)
Description: This methodology is further discussed in Assessing bioenergetic function in response to oxidative stress by metabolic profiling. Free Radical Biology and Medicine; […], Benavides […], Zelickson […]. Zou L, Chatham J C, Hill B G, Zhang […]; 2011 Nov. 1; 51(9):1621-35, incorporated herein by reference, as well as in Proceedings of the National Academy of Sciences of the United States of America; Miyoshi N, Oubrahim H, Chock […] . . . 2006 Feb. 7; 103(6):1727-31, incorporated herein by reference. […] Hydrogen peroxide is a well-known ROS as is commonly used as a surrogate to analyze the effects of a variety of ROS. In this test, keratinocytes are cultured (passage <8) in T150 flasks using Epi-Life medium (Calcium Free and Phenol Red Free, supplemented with penicillin/streptomycin and keratinocytes growth supplement, Invitrogen cat #[…]500) in a CO2 incubator (Forma 51030532, Marietta OH). The keratinocytes are then plated into 96 well plates, 10,000 cells/well, 0.2 ml media. […] Luminescence is measured on a SpectraMax M3 (Molecular Devices, Sunnyvale, CA). Net luminescence is calculated by subtracting the luminescence counts from the vehicle control from the luminescence counts from the treatment groups. […] In each case, the arithmetic sum of the measured anti-oxidant activity of the three individual components is compared to the measured anti-oxidant activity of the triad combination of the same levels. Experiments are done in triplicate enabling the statistical determination (by T-test) of significance of whether synergism (observed/calculated ratio is greater than 1) is observed.

skin fibroblasts = skin fibroblasts in vitro; cited from earlier work

## NC(=O)c1cccnc1 [Niacinamide, niacinamide]
skin
  lipoperoxide generation in skin: inhibit
  oxidative damage caused by pollutant particulate matter: inhibit
keratinocytes; Niacinamide 0.005% alone, post-peroxide, series with PO 0.5%
  Mean Keratinocyte ATP Level: 100.3
keratinocytes; Niacinamide 0.005% alone, post-peroxide, series with PO 0.8%
  Mean Keratinocyte ATP Level: 32.7
keratinocytes; Niacinamide 0.01% alone, post-peroxide, series with PO 0.5%
  Mean Keratinocyte ATP Level: 154.3
keratinocytes; Niacinamide 0.01% alone, post-peroxide, series with PO 0.8%
  Mean Keratinocyte ATP Level: 85.7
keratinocytes; Niacinamide 0.05% alone, post-peroxide, series with PO 0.5%
  Mean Keratinocyte ATP Level: 341.0
keratinocytes; Niacinamide 0.05% alone, post-peroxide, series with PO 0.8%
  Mean Keratinocyte ATP Level: 465.0
keratinocytes; Niacinamide 0.1% alone, post-peroxide, series with PO 0.5%
  Mean Keratinocyte ATP Level: 1142.0
keratinocytes; Niacinamide 0.1% alone, post-peroxide, series with PO 0.8%
  Mean Keratinocyte ATP Level: 875.0
keratinocytes; Niacinamide 1.0% alone, post-peroxide, series with PO 0.5%
  Mean Keratinocyte ATP Level: 9208.3
keratinocytes; Niacinamide 1.0% alone, post-peroxide, series with PO 0.8%
  Mean Keratinocyte ATP Level: 6003.7
keratinocytes; Niacinamide 1.8% alone, post-peroxide, series with PO 0.5%
  Mean Keratinocyte ATP Level: 12314.3
keratinocytes; Niacinamide 1.8% alone, post-peroxide, series with PO 0.8%
  Mean Keratinocyte ATP Level: 11751.3

## CC(C)(CO)[C@@H](O)C(=O)NCCCO [Panthenol, panthenol]
Skin fibroblasts
  formation of reactive oxygen species (ROS): inhibit
keratinocytes; Panthenol 0.005% alone, post-peroxide, series with PO 0.5%
  Mean Keratinocyte ATP Level: 193.3
keratinocytes; Panthenol 0.005% alone, post-peroxide, series with PO 0.8%
  Mean Keratinocyte ATP Level: 170.0
keratinocytes; Panthenol 0.01% alone, post-peroxide, series with PO 0.5%
  Mean Keratinocyte ATP Level: 473.3
keratinocytes; Panthenol 0.01% alone, post-peroxide, series with PO 0.8%
  Mean Keratinocyte ATP Level: 280.0
keratinocytes; Panthenol 0.05% alone, post-peroxide, series with PO 0.5%
  Mean Keratinocyte ATP Level: 617.3
keratinocytes; Panthenol 0.05% alone, post-peroxide, series with PO 0.8%
  Mean Keratinocyte ATP Level: 550.7
keratinocytes; Panthenol 0.1% alone, post-peroxide, series with PO 0.5%
  Mean Keratinocyte ATP Level: 1234.3
keratinocytes; Panthenol 0.1% alone, post-peroxide, series with PO 0.8%
  Mean Keratinocyte ATP Level: 1227.7
keratinocytes; Panthenol 0.2% alone, post-peroxide, series with PO 0.5%
  Mean Keratinocyte ATP Level: 5282.0
keratinocytes; Panthenol 0.2% alone, post-peroxide, series with PO 0.8%
  Mean Keratinocyte ATP Level: 5711.7

## Cc1cc(CC(C)CC(C)(C)C)n(O)c(=O)c1.NCCO (stereo not drawn) [Piroctone Olamine, piroctone olamine]
keratinocytes; Piroctone Olamine 0.5% alone, post-peroxide exposure
  Mean Keratinocyte ATP Level: 13548.3
keratinocytes; Piroctone Olamine 0.8% alone, post-peroxide exposure
  Mean Keratinocyte ATP Level: 18548.3
